{"source": "the NIST ThermoML archive (doi:10.1016/j.tca.2005.04.030)", "key": {"[1]": {"details": "101.33 kPa, Liquid; for mass density: 298.1 K, Vibrating tube method; for speed of sound: 298.15 K, Anton Paar DSA 48"}, "[2]": {"assay": "refractive index (Na D-line) (dimensionless)", "details": "298.1 K, 101.33 kPa, Liquid"}}, "note": "± gives the expanded uncertainty stated by the source.", "data": [{"smiles": "CCCCOC(C)(C)C", "note": "[butane, 1-(1,1-dimethylethoxy)-]", "values": [{"measurement": "mass density", "setting": "[1]", "value": "757.57 ± 0.17", "unit": "kg/m3"}, {"measurement": "speed of sound", "setting": "[1]", "value": "1113 ± 2", "unit": "m/s"}, {"measurement": "refractive index", "setting": "[2]; Anton Paar DSA 48", "value": "1.3917 ± 5e-05"}]}, {"smiles": "CCO", "note": "[ethanol]", "values": [{"measurement": "mass density", "setting": "[1]", "value": "785.22 ± 0.25", "unit": "kg/m3"}, {"measurement": "speed of sound", "setting": "[1]", "value": "1143 ± 2", "unit": "m/s"}, {"measurement": "refractive index", "setting": "[2]; ATAGO RX-1000", "value": "1.3592 ± 0.00011"}]}, {"smiles": "CO", "note": "[methanol]", "values": [{"measurement": "mass density", "setting": "[1]", "value": "786.63 ± 0.25", "unit": "kg/m3"}, {"measurement": "speed of sound", "setting": "[1]", "value": "1101 ± 2", "unit": "m/s"}, {"measurement": "refractive index", "setting": "[2]; ATAGO RX-1000", "value": "1.3264 ± 0.0002"}]}, {"smiles": "O", "note": "[water]", "values": [{"measurement": "refractive index", "setting": "[2]; ATAGO RX-1000", "value": "1.3325 ± 8e-05"}]}]}
